Laboratory results from patent US5208326A, “8-hydroxy-2H-dibenz(b,f)azepin-2-one dyes” (Miles Inc., priority 1991, dated 1993).

Experiments:
[1] = pKa of the acid/base indicator dye; assay type: physicochemical
[2] = system: β-galactosidase; assay: Substrate evaluation: hydrolysis by β-galactosidase in solution; assay type: biochemical
[3] = 50 mM phosphate buffer pH 7.4 (containing no magnesium)

| pKa [1] | SMILES | substrate for β-galactosidase (in words) [2] | Km [2, 3] [µM] | rate (Kcat) of hydrolysis to give 2 [2, 3] |
| --- | --- | --- | --- | --- |
| 6.95 | O=C1C=CC2=Nc3ccc(O)cc3CCC2=C1 [Compound 2, 8-Hydroxy-10,11-dihydro-2H-dibenz[b,f]azepin-2-one] |  |  |  |
| 6.34 | O=c1ccc2nc3ccc(O)cc3ccc-2c1 [Compound 1, 8-Hydroxy-2H-dibenz[b,f]azepin-2-one] |  |  |  |
|  | O=c1ccc2nc3ccc(O[C@@H]4O[C@H](CO)[C@H](O)[C@H](O)[C@H]4O)cc3ccc-2c1 [Compound 3, 8-(β-D-galactopyranosyloxy)-2H-dibenz[b,f]azepin-2-one] | substrate for β-galactosidase |  |  |
|  | O=C1C=CC2=Nc3ccc(O[C@@H]4O[C@H](CO)[C@H](O)[C@H](O)[C@H]4O)cc3CCC2=C1 [Compound 4, 8-(β-D-galactopyranosyloxy)-10,11-dihydro-2H-dibenz [b,f]azepin-2-one] | substrate for β-galactosidase | 96 | 7.07×10^3 mol. min^-1 /mol. active site |
